Results reported in US5994336A, “Method of inhibiting proliferation of cells by administering an aminosterol compound” (priority 1995, dated 1999).
Entries after “also recorded” stand apart in the source; their conditions may differ.

How the values were obtained:
rabbit NHE3 = biological target: T1, rabbit NHE3 (Oryctolagus cuniculus, UniProt P26432); format: cell-based
T1 construct: BCECF internal pH recovery

human NHE1 = assay: NHE1 inhibition, internal pH (BCECF-AM) in transfected PS120 fibroblasts; format: cell-based; details: 5 μg/ml; FIG. 2B
Protocol: (§1) PS120 fibroblasts transfected with rabbit or human NHE1 were grown as described above.

rabbit NHE1 = assay: as above; format: cell-based; details: 5 μg/ml; FIG. 2A
Protocol: as §1

[1] = tested on: bovine pulmonary endothelial cells; assay: Growth inhibition in vitro (absorbance at 600 nm); format: cell-based; details: 1 μg/ml; FIG. 3A
[2] = tested on: human microvascular cells; assay: Inhibition of endothelial cell cord formation in vitro; format: cell-based; details: words
Description: Endothelial cells have the capacity in vitro to form tubular aggregates resembling capillaries in various early stages of formation. This conversion occurs under relatively specific conditions, in which essential growth factors along with an effective substratum are provided. It has been shown that both the interaction of growth factors with the endothelial cell and its attachment to a substratum activate the NHE. The activation of this exchanger is believed to be required for subsequent morphologic transformation of the endothelial cell into a multicellular tubular structure.
To assess the effect of compounds on the cord-like structures formed by human microvascular cells when plated in the presence of VEGF (Vascular Endothelial Growth Factor) and basic fibroblast growth factor on a collagen matrix, a standard cord formation assay was used.

[3] = tested on: human umbilical venous endothelial cells; assay: LPS-induced neutrophil adherence; format: cell-based; details: squalamine 10 μg, 1.0 μg or 0.1 μg
Description: Methods 109, 1988, 175-184.

[4] = tested on: capillaries of the chorioallantoic membrane; assay: Inhibition of capillary growth in chorioallantoic membrane (CAM) model; format: in vivo, chick
Description: The growing capillaries within the chorioallantoic membrane model (CAM model) have been used as a system in which to evaluate the effect of agents on their potential to inhibit new vessel growth. Neovascularization occurs most aggressively over the first week of embryonic development. Thereafter capillary growth is characterized by principally "elongation" rather than "de novo" formation.
In the standard assay, agents are applied locally to a region of the embryo over which neovascularization will occur. Agents are assessed by their ability to inhibit this process, as evaluated by visual examination about 7 days after application. […] The assay utilized is described in detail in Auerbach et al., Pharm. Ther. 51, 1991, 1-11.

[5] = tested on: Xenopus tadpole, stage 59-60; assay: Tadpole assay; format: in vivo, Xenopus laevis; details: 10 μg/ml; for pharmacological response in tadpole (words): stage 59-60
B16 melanoma [6] = assay: Suppression of growth of B16 melanoma in C57B mice; format: in vivo, mouse
Protocol: The growth of B16 melanoma in C57B mice is dependent upon neovascularization.
Using the growth of B16 melanoma cells in C57B mice, a recognized model for the evaluation of inhibitors of angiogenesis on the growth of cancers, the effects of subcutaneous, intraperitoneal and oral administration of squalamine were evaluated.

B16 = assay: Cytostatic activity against B16 in culture; format: cell-based, murine; details: except at very high concentrations
[7] = tested on: VX2 carcinoma-induced corneal neovascularization; assay: Suppression of tumor-induced corneal neovascularization in rabbits; format: in vivo, rabbit; details: ELVAX 40 P pellet, day 21
Description: The implantation of VX2 carcinoma into the rabbit cornea results in the induction of new blood vessels within several days (Tamargo et al., Cancer Research 51, 1991, 672-675). It is believed that this carcinoma secretes growth factors that stimulate new blood-vessel growth. Thus, this model is indicative in vivo evidence of therapeutic utility in the treatment of pathological disorders of vascularization, including the metastatic spread of tumors, diabetic retinopathy, macular degeneration, and rheumatoid arthritis.
This experiment followed the published protocol--tumor was implanted adjacent to a polymer containing a concentration of the agent to be evaluated. The polymer releases the agent slowly in the immediate neighborhood of the tumor, providing sustained high local concentrations of the agent. In this experiment, squalamine introduced into a pellet of ELVAX 40 P (DuPont, Wilmington, Del.) inhibited new blood vessel formation by about 60% at days 7 and 14, and by about 25% at day 21.

[8] = tested on: PHA-stimulated human lymphocytes; assay: Inhibition of mitogen (PHA)-stimulated growth of human T-cells; format: cell-based
Description: Results are tabulated below.

B16 melanoma [9] = assay: Synergistic inhibition of tumor growth, B16 melanoma model; format: in vivo, mouse; details: squalamine alone
Protocol: Based on the idea that tumor growth involves both the clonal expansion of a malignant cell along with the development of a supporting vascular supply, a combination of compound 1436 with squalamine was tested to determine whether it would achieve a synergistic effect on solid tumor growth. This concept was evaluated in the B16 melanoma model.
Animals were implanted with B16 melanoma followed by treatment with compound 1436 or 1256 administered in a combined schedule or separately. […] Thus, a combination of these two compounds achieves a therapeutic benefit in tumors dependent on neovascularization that may prevent metastatic spread.

[10] = tested on: human coronary artery smooth muscle; assay: Proliferation of human coronary artery smooth muscle in vitro; format: cell-based; details: FIG. 15
Description: Aminosterols of the invention may also have utility in inhibiting the growth factor mediated proliferation of smooth muscle within the artery. Following coronary angioplasty, reocclusion commonly occurs, secondary to reparative proliferation of the vascular smooth muscle within the wall of the surgically manipulated blood vessel. This process generally takes place over the course of 7-10 days. To evaluate whether an agent could prevent the growth factor mediated proliferation of smooth muscle within the artery, compound 1436 was evaluated in vitro for its effect on the proliferation of human coronary artery smooth muscle. Results for compound 1436 are shown in FIG. 13, and those for squalamine are shown in FIG. 14, with FIG. 15 being a composite logarithmic plot.

[11] = tested on: bacteria, fungi and protozoa; details: cited from earlier work
[12] = listed as Compound 1256 (Squalamine)

T1 sequence (P26432 30-832): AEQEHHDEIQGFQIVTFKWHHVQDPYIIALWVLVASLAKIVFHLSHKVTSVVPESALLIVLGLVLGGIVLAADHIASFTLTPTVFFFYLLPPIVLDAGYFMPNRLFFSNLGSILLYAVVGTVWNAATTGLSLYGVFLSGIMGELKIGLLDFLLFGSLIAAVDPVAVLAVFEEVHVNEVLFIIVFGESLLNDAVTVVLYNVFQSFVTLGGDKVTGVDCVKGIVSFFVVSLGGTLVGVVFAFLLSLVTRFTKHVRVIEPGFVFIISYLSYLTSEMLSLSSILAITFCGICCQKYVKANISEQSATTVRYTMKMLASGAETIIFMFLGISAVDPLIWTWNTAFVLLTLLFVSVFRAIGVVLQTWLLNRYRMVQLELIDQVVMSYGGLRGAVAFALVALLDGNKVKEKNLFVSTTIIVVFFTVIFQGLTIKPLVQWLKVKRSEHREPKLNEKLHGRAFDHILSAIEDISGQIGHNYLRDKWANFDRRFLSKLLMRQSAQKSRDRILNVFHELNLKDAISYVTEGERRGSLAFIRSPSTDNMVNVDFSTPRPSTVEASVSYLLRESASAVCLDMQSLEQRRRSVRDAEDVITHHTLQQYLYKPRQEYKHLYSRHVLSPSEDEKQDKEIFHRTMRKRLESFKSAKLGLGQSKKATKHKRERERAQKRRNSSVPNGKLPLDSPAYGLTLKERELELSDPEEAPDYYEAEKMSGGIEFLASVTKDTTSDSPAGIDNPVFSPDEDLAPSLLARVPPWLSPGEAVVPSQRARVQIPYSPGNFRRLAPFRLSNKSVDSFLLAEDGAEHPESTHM

## CC(C)[C@@H](CC[C@@H](C)[C@H]1CC[C@H]2[C@@H]3[C@H](O)C[C@H]4C[C@@H](NCCCNCCCCN)CC[C@]4(C)[C@H]3CC[C@]12C)OS(=O)(=O)O [squalamine]
Rabbit NHE3; 5 μg/ml, cells not acid-preloaded, FIG. 1B
  resting internal pH: the resting pH of these cells was also inhibited
Rabbit NHE3; squalamine 5 μg/ml, FIGS. 1A, 1B
  inhibition of NHE3, effect on Km and Vmax: inhibited NHE3 with respect to proton concentration at both Km and Vmax levels
Rabbit NHE3; words
  inactivation of exchanger compared with amiloride: more profoundly inactivated by squalamine than by amiloride
  specificity NHE3 over NHE1: specificity for NHE3 over NHE1
Human NHE1
  inhibitory activity against human NHE1: no inhibitory activity
Rabbit NHE1
  inhibitory activity against rabbit NHE1: no inhibitory activity
[1]
  growth of bovine pulmonary endothelial cells: inhibited the growth
[2]
  effect on cell viability or proliferation at cord-inhibiting concentrations: does not appear to profoundly affect cell viability or proliferation
[3]
  inhibition of neutrophil adherence: no inhibition
[4]; 3-day CAM, 0.65 μg
  inhibition of CAM vessel neovascularization: inhibition of CAM vessel neovascularization
[4]; 3-day embryo, 20 and 40 μg (values marked *)
  vascular irritation: Some vascular irritation noted
[4]; 13-day embryo, 5.0 μg applied
  Percentage positive (positive/total): 0/26
[4]; 13-day old chick, ten times 0.65 μg
  inhibition of CAM capillary growth: no inhibitory effect
[5]
  tissues or functions not affected in tadpole: unaltered blood flow through the fine capillaries of the hands and feet
  pharmacological response in tadpole (words): blood flow through the capillaries of the tail shut down; also recorded: common vascular occlusive effect
[5]; [12]
  pharmacological response in tadpole (words): Vascular occlusion in fine capillaries of tail
  tissues or functions not affected in tadpole: No effect on vascular flow through hands or feet
B16 melanoma [6]; B16-bearing mice
  body weight and hematologic parameters: no significant depression
B16 melanoma [6]; intraperitoneal, FIGS. 4B, 4B-1
  suppression of tumor volume: dose-dependent suppression of tumor volume
B16 melanoma [6]; oral, FIGS. 4C, 4C-1
  suppression of tumor volume: dose-dependent suppression of tumor volume
B16 melanoma [6]; subcutaneous, FIGS. 4A, 4A-1
  suppression of tumor volume: dose-dependent suppression of tumor volume
B16
  cytostatic activity against B16 in culture: minimal cytostatic activity
[7]
  inhibition of new blood vessel formation: about 25%
[8]
  inhibition of blast transformation: Some effect
B16 melanoma [9]; 5 mg/kg/day, FIG. 12
  impact on tumor volume: no significant impact on tumor volume
B16 melanoma [9]; 15 mg/kg/day
  effect compared with combination: Neither administration of squalamine at 15 mg/kg/day nor compound 1436 alone in a tolerable schedule could achieve this effect
[10]
  suppression of growth in vitro: suppress in vitro the growth of human coronary artery smooth muscle
[11]
  antibiotic spectrum: broad-spectrum antibiotic, killing bacteria, fungi and protozoa
